Measured values from patent publication US11213497B2, “Antibiofilm formulations” (ARIZONA BOARD OF REGENTS ON BEHALF OF NORTHERN ARIZONA …, priority 2017, dated 2022).

How the values were obtained:
[1] = system: MSSA; assay: MBEC of geranic acid in solution (Hepes buffer); format: cell-based, Staphylococcus aureus; details: 50 mM Hepes buffer
Source text: Neutral species in DES may be uniquely important to potentiate otherwise bioactive IL. […] At this pH, most of the acid is expected to be found in the protonated state (pKa is ˜5-5.5 according to the literature). […] Many different DES can be envisioned with this same platform of 1:1 anion:cation as an EPS disruptor/delivery agent with a neutral acid (or even a completely neutral species such as an isoprenoid hydrocarbon) as a molecule designed to saturate both leaflets of a cellular membrane.

[2] = according to the literature; cited from earlier work
[3] = system: MSSA biofilms
Protocol: Biofilms of Methicillin-sensitive Staphylococcus aureus (MSSA) were established on the pegs of a biofilm inoculator (Innovotech) according to the manufacturer's instructions. Briefly, a bacterial colony of MSSA was inoculated from an agar streak plate into cation-adjusted Mueller-Hinton broth (5 mL) and grown to confluence overnight in a shaker incubator (37° C., 200 rpm). The confluent culture was then diluted into fresh media (1:100, v:v), and grown to an optical density (OD) of 0.4 (approximately three hours). At this time, the cultures were again diluted into fresh media (1:50, v:v) and 200 μL of the resultant dilution were placed into each well of an Innovotech 96 well biofilm inoculator plate. The inoculator was added to the wells of the culture plate and it was placed in a shaker incubator overnight (37° C., 150 rpm). The spent media was decanted each morning and refreshed with equal volumes of new media, and the inoculator was again placed in a shaker incubator overnight (37° C., 150 rpm). […]
A 10% (v:v) stock solution of each DES in CAMHB was serially diluted into fresh CAMHB in the wells of a 96 well plate. […] MSSA cells were allowed to grow overnight in the shaker incubator and viability was assessed via measurement of optical density at 600 nm using a plate reader (Synergy HT). […]

[4] = system: mammalian skin cell lines

## CC(C)=CCC/C(C)=C/C(=O)O [geranic acid]
[1]; pH=6.4, 0.1% Tween 20
  MBEC: 2.5 % in water
[1]; pH=8.4, 0.1% Tween 20
  MBEC: > 10%
[2]
  pKa: 5-5.5

## Choline Geranate Ionic Liquid [2; CAGE (1:1)]
[3]; 2-hour challenge, 72 hr MSSA biofilms, dilutions in CAMHB 0.313-10% (v:v)
  MBEC (% by volume): 5-10 % by volume
[3]; in water
  MBEC against MSSA: 5-10%

## choline geranate [CAGE]
[4]
  Toxicity to mammalian skin cell lines: generally non-toxic to mammalian skin cell lines
